Test results from patent EP0322747B1, “A brain neuron protecting agent containing a dihydropyridine compound” (priority 1987, dated 1989).

What was measured:
Experiment in all cases: Prophylactic effect on ischemic breakdown of cytoskeletal proteins, 5-minute brain ischemia-reperfusion model
Assay type in all cases: in vivo, gerbil
MAP-2 = test system: MAP-2
Experimental: (§1) A gerbil was immobilized in supine position and median section was performed in the cervical region under local anesthesia. Then, the bilateral common carotid arteries were stripped off carefully not to injure the vagus and sympathetic nerves running in parallel, . Then, each common carotid artery was obstructed with a small clip and after an interval of 5, 10 or 15 minutes, the clips were removed. The animal was decapitated immediately, 4 days or 1 week after the removal of the clips, and the brain was isolated. Untreated animals served as controls and animals undergoing sham operation (involving the stripping procedure only) were also investigated. The isolated brain was sectioned under ice-cooling into the frontal cortex (upper 2/3, approximately corresponding to the 1st to the 5th layer, ∼80 mg), striatum (∼20 mg) and hippocampus (∼50 mg) and each portion was homogenized in 4 times volume of (v/w) of 0.01 M phosphate buffer (pH 7.2). Each homogenate was centrifuged at 100,000 G for 30 minutes to obtain a supernatant. Equal parts of these supernatants were subjected to SDS-polyacrylamide gel (5%) electrophoresis and the proteins, namely MAP-2 (MW: 250-260K) calspectin (MW: 230-240K) and clathrin (MW: 180K), were quantified by measuring the absorbances at 560 nm with a densitometer (CS-930, Shimazu), and the proportion of each protein to the total water-soluble protein (exactly, the integral sum of the absorbance areas) was calculated. In addition, the relative percentage to the value of the untreated control group was also calculated.
(§2) Two series of experiments were carried out. […] One hour after the reperfusion, the animal was killed by decapitation and the brain was removed. […] One hour after the final administration (day 5), the animal was decapitated and the brain was isolated. The isolated brain was subjected to fractionation and electrophoresis as described above.

clathrin = settings: for Total score, Clathrin: number of brain sites with significant effect
Experimental: as §1, §2

calspectin = settings: number of brain sites with significant effect
Experimental: as §1, §2

[1] = Left: dosed 1 hour before ischemia, killed 1 hour after ischemia, number of brain sites with significant effect
[2] = Right: dosed 1 hour before ischemia and for 4 subsequent days, number of brain sites with significant effect
[3] = sum of left and right (in brackets)
[4] = Left: dosed 1 hour before ischemia, killed 1 hour after ischemia
[5] = Right: dosed 1 hour before ischemia and for 4 subsequent days

COC(=O)C1=C(C)NC(C)=C(C(=O)OCCN(C)Cc2ccccc2)C1c1cccc([N+](=O)[O-])c1 (centres unmarked) [Nicardipine, nicardipine]
Total score, MAP-2 (MAP-2; [1]): 2
Total score, MAP-2 (MAP-2; [2]): 2
Total score, MAP-2 (MAP-2; [3]): 4
Total score, Clathrin (clathrin; [4]): 0/0 (0)
Total score, Clathrin (clathrin; [5]): 0/0 (0)
Total score, Calspectin (calspectin; [4]): 0/0 (0)
Total score, Calspectin (calspectin; [5]): 0/0 (0)

COCCOC(=O)C1=C(C)NC(C)=C(C(=O)OC(C)C)C1c1cccc([N+](=O)[O-])c1 (centres unmarked) [Nimodipine, nimodipine]
Total score, MAP-2 (MAP-2; [1]): 2
Total score, MAP-2 (MAP-2; [2]): 1
Total score, MAP-2 (MAP-2; [3]): 3
Clathrin protein concentration (clathrin; Cortex, 0.01 mg/kg s.c. 1 hour before ischemia, 1 hour after ischemia): 81.9± 5.5 % of normal value
Clathrin protein concentration (clathrin; Cortex, 0.1 mg/kg s.c. 1 hour before ischemia and once a day for 4 days, 4 days after ischemia): 52.3± 9.5 % of normal value
Clathrin protein concentration (clathrin; Cortex, 0.1 mg/kg s.c. 1 hour before ischemia, 1 hour after ischemia): 81.8± 6.3 % of normal value
Clathrin protein concentration (clathrin; Cortex, 1 mg/kg s.c. 1 hour before ischemia and once a day for 4 days, 4 days after ischemia): 55.8± 8.5 % of normal value
Clathrin protein concentration (clathrin; Cortex, 1 mg/kg s.c. 1 hour before ischemia, 1 hour after ischemia): 85.9± 4.0 % of normal value
Clathrin protein concentration (clathrin; Cortex, 10 mg/kg s.c. 1 hour before ischemia and once a day for 4 days, 4 days after ischemia): 54.6± 5.7 % of normal value
Clathrin protein concentration (clathrin; Hippocampus, 0.01 mg/kg s.c. 1 hour before ischemia, 1 hour after ischemia): 52.1± 3.3 % of normal value
Clathrin protein concentration (clathrin; Hippocampus, 0.1 mg/kg s.c. 1 hour before ischemia and once a day for 4 days, 4 days after ischemia): 46.6± 4.2 % of normal value
Clathrin protein concentration (clathrin; Hippocampus, 0.1 mg/kg s.c. 1 hour before ischemia, 1 hour after ischemia): 56.7± 7.1 % of normal value
Clathrin protein concentration (clathrin; Hippocampus, 1 mg/kg s.c. 1 hour before ischemia and once a day for 4 days, 4 days after ischemia): 51.2±10.7 % of normal value
Clathrin protein concentration (clathrin; Hippocampus, 1 mg/kg s.c. 1 hour before ischemia, 1 hour after ischemia): 61.6±12.2 % of normal value
Clathrin protein concentration (clathrin; Hippocampus, 10 mg/kg s.c. 1 hour before ischemia and once a day for 4 days, 4 days after ischemia): 64.6±15.0 % of normal value
Total score, Clathrin (clathrin; [4]): 0/0 (0)
Total score, Clathrin (clathrin; [5]): 0/0 (0)
Clathrin protein concentration (clathrin; Striatum, 0.01 mg/kg s.c. 1 hour before ischemia, 1 hour after ischemia): 70.5±21.1 % of normal value
Clathrin protein concentration (clathrin; Striatum, 0.1 mg/kg s.c. 1 hour before ischemia and once a day for 4 days, 4 days after ischemia): 53.6±11.3 % of normal value
Clathrin protein concentration (clathrin; Striatum, 0.1 mg/kg s.c. 1 hour before ischemia, 1 hour after ischemia): 68.7±11.9 % of normal value
Clathrin protein concentration (clathrin; Striatum, 1 mg/kg s.c. 1 hour before ischemia and once a day for 4 days, 4 days after ischemia): 57.9± 5.3 % of normal value
Clathrin protein concentration (clathrin; Striatum, 1 mg/kg s.c. 1 hour before ischemia, 1 hour after ischemia): 69.8±12.7 % of normal value
Clathrin protein concentration (clathrin; Striatum, 10 mg/kg s.c. 1 hour before ischemia and once a day for 4 days, 4 days after ischemia): 62.0±10.2 % of normal value
Total score, Calspectin (calspectin; [4]): 0/0 (0)
Total score, Calspectin (calspectin; [5]): 0/0 (0)
